#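 Exposure lasted 48 hours, with cells grown in 96-well plates and compounds tested at five concentrations. The concentration for full growth arrest is given as TGI.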
# Legend:
# Experiment in all cases: inhibition of tumour cell growth, NCI panel, 48 h
# [1] = tested on: SK-MEL-5 melanoma
# [2] = tested on: HL-60(TB) leukemia
# [3] = tested on: ACHN renal
# [4] = tested on: SF-539 CNS
# [5] = tested on: TK-10 renal
# [6] = tested on: HCC-2998 colon
# [7] = tested on: HCT-116 colon
# [8] = tested on: CAKI-1 renal
# [9] = tested on: HT29 colon
# [10] = tested on: RPMI-8226 leukemia
# [11] = tested on: K-562 leukemia
# [12] = tested on: SK-MEL-28 melanoma
# [13] = tested on: HS 578T breast
# [14] = tested on: M14 melanoma
# [15] = tested on: OVCAR-5 ovarian
# [16] = tested on: MOLT-4 leukemia
# [17] = tested on: OVCAR-8 ovarian
# [18] = tested on: NCI/ADR-RES ovarian
# [19] = tested on: SF-268 CNS
# [20] = tested on: UACC-62 melanoma
# [21] = tested on: MDA-MB-435
# [22] = tested on: MALME-3M melanoma
# [23] = tested on: PC-3 prostate
# [24] = tested on: COLO 205 colon
# [25] = tested on: NCI-H522 lung
# [26] = tested on: KM12 colon
# [27] = tested on: NCI-H226 lung
# [28] = tested on: MDA-MB-231 breast
# [29] = tested on: IGROV1 ovarian
# [30] = tested on: SNB-75 CNS
# [31] = tested on: SR leukemia
# [32] = tested on: DU-145 prostate
# [33] = tested on: T-47D breast
# [34] = tested on: HCT-15 colon
# [35] = tested on: EKVX NSCLC
# [36] = tested on: SW-620 colon
# [37] = tested on: RXF 393 renal
# [38] = tested on: HOP-62 NSCLC
# [39] = tested on: A498 renal
# [40] = tested on: MCF7 breast
# [41] = tested on: SNB-19 CNS
# [42] = tested on: NCI-H23 lung
# [43] = tested on: U251 CNS
# [44] = tested on: OVCAR-4 ovarian
# [45] = tested on: BT-549 breast
# [46] = tested on: HOP-92 NSCLC
# [47] = tested on: NCI-H460 lung
# [48] = tested on: OVCAR-3 ovarian
# [49] = tested on: MDA-N
# [50] = tested on: UO-31 renal
# [51] = tested on: 786-0 renal
# [52] = tested on: UACC-257 melanoma
# [53] = tested on: SK-OV-3 ovarian
# [54] = tested on: A549 NSCLC
# [55] = tested on: SF-295 CNS
# [56] = tested on: LOX IMVI melanoma
# [57] = tested on: SN12C renal
# [58] = tested on: SK-MEL-2 melanoma
smiles,measurement,setting,value
CCCn1cnc2c(NN=O)ncnc21,TGI,[1],> 100 µM
same,TGI,[2],> 100 µM
same,TGI,[3],> 100 µM
same,TGI,[4],> 100 µM
same,TGI,[5],> 100 µM
same,TGI,[6],> 100 µM
same,TGI,[7],> 100 µM
same,TGI,[8],> 100 µM
same,TGI,[9],> 100 µM
same,TGI,[10],> 100 µM
same,TGI,[11],> 100 µM
same,TGI,[12],> 100 µM
same,TGI,[13],> 100 µM
same,TGI,[14],> 100 µM
same,TGI,[15],> 100 µM
same,TGI,[16],> 100 µM
same,TGI,[17],> 100 µM
same,TGI,[18],> 100 µM
same,TGI,[19],> 100 µM
same,TGI,[20],> 100 µM
same,TGI,[21],> 100 µM
same,TGI,[22],> 100 µM
same,TGI,[23],> 100 µM
same,TGI,[24],> 100 µM
same,TGI,[25],> 100 µM
same,TGI,[26],> 100 µM
same,TGI,[27],> 100 µM
same,TGI,[28],> 100 µM
same,TGI,[29],> 100 µM
same,TGI,[30],> 100 µM
same,TGI,[31],> 100 µM
same,TGI,[32],> 100 µM
same,TGI,[33],> 100 µM
same,TGI,[34],> 100 µM
same,TGI,[35],> 100 µM
same,TGI,[36],> 100 µM
same,TGI,[37],> 100 µM
same,TGI,[38],> 100 µM
same,TGI,[39],> 100 µM
same,TGI,[40],> 100 µM
same,TGI,[41],> 100 µM
same,TGI,[42],> 100 µM
same,TGI,[43],> 100 µM
same,TGI,[44],> 100 µM
same,TGI,[45],> 100 µM
same,TGI,[46],> 100 µM
same,TGI,[47],> 100 µM
same,TGI,[48],> 100 µM
same,TGI,[49],> 100 µM
same,TGI,[50],> 100 µM
same,TGI,[51],> 100 µM
CC1=C/C(=N/N2C(=O)/C(=C/c3ccc(Cl)cc3)N=C2c2ccccc2)CC(C)(C)C1,TGI,[1],> 100 µM
same,TGI,[3],> 100 µM
same,TGI,[4],> 100 µM
same,TGI,[5],> 100 µM
same,TGI,[6],> 100 µM
same,TGI,[7],> 100 µM
same,TGI,[8],> 100 µM
same,TGI,[9],> 100 µM
same,TGI,[10],> 100 µM
same,TGI,[11],> 100 µM
same,TGI,[52],> 100 µM
same,TGI,[12],> 100 µM
same,TGI,[13],> 100 µM
same,TGI,[14],> 100 µM
same,TGI,[15],> 100 µM
same,TGI,[16],> 100 µM
same,TGI,[17],> 100 µM
same,TGI,[18],> 100 µM
same,TGI,[19],> 100 µM
same,TGI,[53],> 100 µM
same,TGI,[20],> 100 µM
same,TGI,[21],> 100 µM
same,TGI,[22],> 100 µM
same,TGI,[54],> 100 µM
same,TGI,[23],> 100 µM
same,TGI,[24],> 100 µM
same,TGI,[25],> 100 µM
same,TGI,[26],> 100 µM
same,TGI,[55],> 100 µM
same,TGI,[27],> 100 µM
same,TGI,[28],> 100 µM
same,TGI,[29],> 100 µM
same,TGI,[30],93.6 µM
same,TGI,[31],> 100 µM
same,TGI,[33],> 100 µM
same,TGI,[34],> 100 µM
same,TGI,[35],> 100 µM
same,TGI,[56],> 100 µM
same,TGI,[36],> 100 µM
same,TGI,[37],> 100 µM
same,TGI,[38],> 100 µM
same,TGI,[57],> 100 µM
same,TGI,[39],> 100 µM
same,TGI,[40],> 100 µM
same,TGI,[41],> 100 µM
same,TGI,[42],> 100 µM
same,TGI,[43],69.7 µM
same,TGI,[44],> 100 µM
same,TGI,[45],> 100 µM
same,TGI,[46],> 100 µM
same,TGI,[47],> 100 µM
same,TGI,[49],> 100 µM
same,TGI,[50],> 100 µM
same,TGI,[58],96 µM
same,TGI,[51],> 100 µM

# Reference: PubChem BioAssay (NCI)
